Test results published in publication PMC6411159, “Development of a high-throughput fluorescent no-wash sodium influx assay” (PLoS ONE, 2019).
Read-outs that look alike come from different tables or passages of the source. Values belong to the molecule of their own block, whether it stands above or below them.

Experiments:
[1] = octanol-water partition of quencher dyes; assay type: physicochemical; settings: 1 mM in 1:1 octanol/water, settled overnight
Experimental: Supplementary file pone.0213751.s002.pdf: S2 Fig Octanol-water partition of quencher dyes. Quenchers were added to 1:1 octanol/water volume to a 1mM concentration. Tubes were agitated and allowed to settle overnight. […] (PDF) Click here for additional data file.

hNaV1.7 = molecular target: T1, hNaV1.7 (Homo sapiens, UniProt Q15858); assay type: cell-based
T1 construct: host or cells: HEK293
Experimental: (§1) HEK293 cells heterologously expressing human NaV1.1–1.8 (SB Drug Discovery, Glasgow, UK) were cultured in Minimum Essential Medium (MEM) (Sigma Aldrich #M5650) containing 10% v/v fetal bovine serum (FBS) and selection antibiotics as recommended by the manufacturer. SH-SY5Y human neuroblastoma cells (Victor Diaz, Goettingen, Germany) were cultured in Roswell Park Memorial Institute (RPMI) medium containing 15% v/v FBS and supplemented with L-glutamine (1 mM). […] Cells were grown in a humidified 5% CO2 incubator at 37°C, grown to 70–80% confluence, and passaged every 3–4 days using TrypLE Express (Invitrogen) or trypsin (0.25%).
(§2) Data were plotted and analyzed using GraphPad Prism, version 6.0. For concentration-response curves, a four-parameter Hill equation with variable Hill coefficient was fitted to the data. Statistical significance was defined as P < 0.05 and was determined by an unpaired t-test assuming equal variance or one-way ANOVA with Dunnett’s post-test as indicated. Data are presented as mean±SEM.

[2] = absorbance spectra (UV-Vis spectrophotometry); assay type: physicochemical; settings: diluted in water, NanoDrop ND1000
Experimental: Quencher dyes Allura Red AC, Amaranth, Carmine, Brilliant Black BN (Sigma Aldrich), and Ponceau 4R (pillar box red food dye) (Queen Australia) were diluted in water to the maximum concentration required to be within detection range (250–1000 μM). Their absorbance spectra were measured with a NanoDrop^TM ND1000 (ThermoFisher Scientific) UV-Vis spectrophotometer and plotted vs UV-Vis spectrum wavelength using GraphPad Prism 6.0.

adenosine receptors = system: adenosine receptors; parameters: method as in PMID 20086038; settings: cited from earlier work
TRPV4 = molecular target: T2, TRPV4 (Homo sapiens, UniProt Q9HBA0); test: FLIPR calcium dye assay in MDA-MB-468 breast cancer cells; assay type: cell-based; settings: MDA-MB-468 cells, read-out: EC50 (increase in intracellular calcium)
T2 construct: endogenous in cells
Experimental: FLIPR Calcium 4 no-wash dye (Molecular Devices) and BD Calcium Assay (BD Biosciences) kits were diluted in physiological salt solution as per manufacturers instructions. […] Raw fluorescence readings were converted to response over baseline using the analysis tool of Screenworks 3.1.1.4 (Molecular Devices) and were expressed relative to the maximum increase in fluorescence of control responses following 5 min incubation of compounds.

human NaV1.7 = molecular target: T3, human NaV1.7 (Homo sapiens, UniProt Q15858); test: automated whole-cell patch-clamp electrophysiology (QPatch-16); assay type: cell-based; settings: Ponceau 4R 1 mM
T3 construct: host or cells: HEK293
Experimental: Automated whole-cell patch-clamp recordings were performed on HEK293 cells heterologously expressing human NaV1.7 (SB Drug Discovery, Glasgow, UK) using a QPatch-16 automated electrophysiology platform (Sophion Bioscience, Ballerup, Denmark) as previously described. The extracellular solution consisted of (in mM): NaCl 70, Choline chloride 70, KCl 4, CaCl2 2, MgCl2 1, HEPES 10 and glucose 10; pH 7.4; osmolarity 305 mOsm. The intracellular solution consisted of (in mM): CsF 140, EGTA/CsOH 1/5, HEPES 10 and NaCl 10; pH 7.3 with CsOH; osmolarity 320 mOsm. Ponceau 4R (1 mM) was diluted in extracellular solution and incubated for 5 min before running the voltage protocol and compared to time-matched buffer controls. Patch clamp experiments were conducted at room temperature.
I-V curves were obtained with the membrane potential held at –90 mV and a series of 500 ms step pulses that ranged from –110 to +55 mV in 5-mV increments. Conductance-voltage curves were calculated using the equation G = I/(V–Vrev), where G is conductance, I is peak current and Vrev is the reversal potential. Steady-state fast inactivation was tested using a two-pulse protocol, with 500 ms step pre-pulses (as above) preceding a 10 ms pulse of –20 mV (repetition interval 6000 ms). Both steady-state activation and inactivation curves were fitted using Boltzmann function.

NaV1.1–1.8 = test: no-wash sodium influx assay, summary over subtypes; assay type: cell-based, human; settings: ANG-2 + Ponceau 4R 1 mM; stimulation with veratridine (NaV1.1–1.7) or deltamethrin (NaV1.8); read-out: IC50 range over NaV1.1–1.8
Excerpt: (§3) […]. […] Data are presented as mean±SEM.

hNaV1.1 = molecular target: T4, hNaV1.1 (Homo sapiens, UniProt P35498); test: no-wash sodium influx assay (ANG-2 with quencher Ponceau 4R), FLIPR; assay type: cell-based
T4 construct: host or cells: HEK293
Excerpt: as §3

hNaV1.8 = molecular target: T5, hNaV1.8 (Homo sapiens, UniProt Q9Y5Y9); test: as above; assay type: cell-based
T5 construct: host or cells: HEK293
Excerpt: as §3

hNaV1.4 = molecular target: T6, hNaV1.4 (Homo sapiens, UniProt P35499); test: as above; assay type: cell-based; settings: hNaV1.4, response to veratridine 60 μM; read-out: IC50 (reduction of fluorescence response)
T6 construct: host or cells: HEK293
Excerpt: as §3

hNaV1.2 = hNaV1.2 (Homo sapiens, UniProt Q99250); test: cell-based
Experimental: as §1, §2

NaV1.1–1.7 = settings: read-out: EC50 range over NaV1.1–1.7; ANG-2 + Ponceau 4R 1 mM
Experimental: as §1, §2

NaV1.8 = system: NaV1.8; parameters: method as in PMID 14769548; settings: cited from earlier work
[3] = 5 min, vs time-matched buffer control

T2 sequence (Q9HBA0 whole entry): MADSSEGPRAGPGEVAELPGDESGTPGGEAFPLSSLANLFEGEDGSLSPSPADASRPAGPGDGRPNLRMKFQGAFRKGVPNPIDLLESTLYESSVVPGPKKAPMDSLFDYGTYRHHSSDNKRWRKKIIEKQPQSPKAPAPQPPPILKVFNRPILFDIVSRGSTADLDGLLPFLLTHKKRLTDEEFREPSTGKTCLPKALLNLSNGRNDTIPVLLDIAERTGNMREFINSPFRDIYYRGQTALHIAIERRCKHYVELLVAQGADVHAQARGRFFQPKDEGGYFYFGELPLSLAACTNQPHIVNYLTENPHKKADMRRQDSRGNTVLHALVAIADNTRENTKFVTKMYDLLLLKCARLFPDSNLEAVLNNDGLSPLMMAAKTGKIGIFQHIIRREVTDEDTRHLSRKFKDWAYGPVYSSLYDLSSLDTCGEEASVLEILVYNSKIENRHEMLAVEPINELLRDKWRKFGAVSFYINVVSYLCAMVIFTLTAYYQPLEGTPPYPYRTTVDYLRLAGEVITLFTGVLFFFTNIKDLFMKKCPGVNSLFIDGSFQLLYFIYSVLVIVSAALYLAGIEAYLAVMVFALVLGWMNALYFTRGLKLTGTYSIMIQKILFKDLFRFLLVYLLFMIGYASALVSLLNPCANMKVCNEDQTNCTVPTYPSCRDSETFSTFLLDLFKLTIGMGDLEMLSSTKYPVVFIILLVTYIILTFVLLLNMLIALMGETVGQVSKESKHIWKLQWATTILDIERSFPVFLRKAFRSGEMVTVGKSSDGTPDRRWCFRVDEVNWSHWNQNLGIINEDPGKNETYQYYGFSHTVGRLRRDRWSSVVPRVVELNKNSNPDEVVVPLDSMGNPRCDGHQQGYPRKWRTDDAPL
T3 sequence (Q15858 whole entry): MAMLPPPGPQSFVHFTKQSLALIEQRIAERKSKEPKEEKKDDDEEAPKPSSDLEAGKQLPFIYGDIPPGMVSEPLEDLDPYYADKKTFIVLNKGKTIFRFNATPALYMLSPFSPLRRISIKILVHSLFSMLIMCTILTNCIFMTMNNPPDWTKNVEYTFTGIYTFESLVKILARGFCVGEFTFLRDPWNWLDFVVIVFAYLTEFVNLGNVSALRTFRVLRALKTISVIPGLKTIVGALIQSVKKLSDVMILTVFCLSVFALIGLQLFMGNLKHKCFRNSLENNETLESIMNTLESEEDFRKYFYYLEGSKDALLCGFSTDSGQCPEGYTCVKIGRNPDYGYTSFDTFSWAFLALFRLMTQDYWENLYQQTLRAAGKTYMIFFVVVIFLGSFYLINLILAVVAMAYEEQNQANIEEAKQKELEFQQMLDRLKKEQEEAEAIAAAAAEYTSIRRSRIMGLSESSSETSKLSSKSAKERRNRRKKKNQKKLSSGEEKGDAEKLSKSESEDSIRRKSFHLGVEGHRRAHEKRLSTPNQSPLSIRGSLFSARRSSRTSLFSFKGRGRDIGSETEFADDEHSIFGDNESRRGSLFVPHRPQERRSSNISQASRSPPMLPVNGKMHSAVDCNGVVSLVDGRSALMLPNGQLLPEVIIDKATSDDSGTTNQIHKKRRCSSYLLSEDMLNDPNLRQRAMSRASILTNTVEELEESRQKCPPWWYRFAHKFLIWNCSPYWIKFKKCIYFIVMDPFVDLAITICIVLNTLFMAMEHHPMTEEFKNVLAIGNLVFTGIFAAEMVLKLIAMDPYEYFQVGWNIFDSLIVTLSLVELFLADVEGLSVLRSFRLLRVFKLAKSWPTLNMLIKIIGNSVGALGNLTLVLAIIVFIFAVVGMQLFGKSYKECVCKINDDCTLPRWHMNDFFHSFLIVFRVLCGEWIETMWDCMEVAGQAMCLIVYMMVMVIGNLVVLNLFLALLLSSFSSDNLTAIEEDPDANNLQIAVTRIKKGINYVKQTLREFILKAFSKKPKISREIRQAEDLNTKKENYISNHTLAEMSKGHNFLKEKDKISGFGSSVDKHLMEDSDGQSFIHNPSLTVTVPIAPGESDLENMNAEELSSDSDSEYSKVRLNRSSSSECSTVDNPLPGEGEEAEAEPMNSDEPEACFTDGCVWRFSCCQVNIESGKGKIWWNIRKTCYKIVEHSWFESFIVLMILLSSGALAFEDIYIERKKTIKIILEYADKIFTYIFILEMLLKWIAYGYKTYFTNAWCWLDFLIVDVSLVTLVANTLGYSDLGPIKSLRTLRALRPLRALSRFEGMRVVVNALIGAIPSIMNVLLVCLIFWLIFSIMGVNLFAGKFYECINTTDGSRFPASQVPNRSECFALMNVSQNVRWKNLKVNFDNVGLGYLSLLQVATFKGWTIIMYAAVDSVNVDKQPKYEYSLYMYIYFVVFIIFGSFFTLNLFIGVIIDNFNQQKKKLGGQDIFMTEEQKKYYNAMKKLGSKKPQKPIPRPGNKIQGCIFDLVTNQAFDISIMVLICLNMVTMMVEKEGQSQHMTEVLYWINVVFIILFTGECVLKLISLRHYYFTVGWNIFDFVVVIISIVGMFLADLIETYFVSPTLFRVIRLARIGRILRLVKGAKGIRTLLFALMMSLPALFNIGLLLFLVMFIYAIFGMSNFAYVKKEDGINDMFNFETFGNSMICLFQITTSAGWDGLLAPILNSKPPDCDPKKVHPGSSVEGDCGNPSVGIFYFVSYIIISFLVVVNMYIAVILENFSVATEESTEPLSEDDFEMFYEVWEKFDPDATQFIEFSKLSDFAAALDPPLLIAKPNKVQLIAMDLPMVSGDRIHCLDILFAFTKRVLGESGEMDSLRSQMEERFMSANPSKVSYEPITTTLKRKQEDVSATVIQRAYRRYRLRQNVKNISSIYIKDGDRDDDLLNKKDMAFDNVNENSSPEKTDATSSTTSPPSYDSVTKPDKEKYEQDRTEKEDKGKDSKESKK
Chain of hNaV1.2 (Q99250 whole entry): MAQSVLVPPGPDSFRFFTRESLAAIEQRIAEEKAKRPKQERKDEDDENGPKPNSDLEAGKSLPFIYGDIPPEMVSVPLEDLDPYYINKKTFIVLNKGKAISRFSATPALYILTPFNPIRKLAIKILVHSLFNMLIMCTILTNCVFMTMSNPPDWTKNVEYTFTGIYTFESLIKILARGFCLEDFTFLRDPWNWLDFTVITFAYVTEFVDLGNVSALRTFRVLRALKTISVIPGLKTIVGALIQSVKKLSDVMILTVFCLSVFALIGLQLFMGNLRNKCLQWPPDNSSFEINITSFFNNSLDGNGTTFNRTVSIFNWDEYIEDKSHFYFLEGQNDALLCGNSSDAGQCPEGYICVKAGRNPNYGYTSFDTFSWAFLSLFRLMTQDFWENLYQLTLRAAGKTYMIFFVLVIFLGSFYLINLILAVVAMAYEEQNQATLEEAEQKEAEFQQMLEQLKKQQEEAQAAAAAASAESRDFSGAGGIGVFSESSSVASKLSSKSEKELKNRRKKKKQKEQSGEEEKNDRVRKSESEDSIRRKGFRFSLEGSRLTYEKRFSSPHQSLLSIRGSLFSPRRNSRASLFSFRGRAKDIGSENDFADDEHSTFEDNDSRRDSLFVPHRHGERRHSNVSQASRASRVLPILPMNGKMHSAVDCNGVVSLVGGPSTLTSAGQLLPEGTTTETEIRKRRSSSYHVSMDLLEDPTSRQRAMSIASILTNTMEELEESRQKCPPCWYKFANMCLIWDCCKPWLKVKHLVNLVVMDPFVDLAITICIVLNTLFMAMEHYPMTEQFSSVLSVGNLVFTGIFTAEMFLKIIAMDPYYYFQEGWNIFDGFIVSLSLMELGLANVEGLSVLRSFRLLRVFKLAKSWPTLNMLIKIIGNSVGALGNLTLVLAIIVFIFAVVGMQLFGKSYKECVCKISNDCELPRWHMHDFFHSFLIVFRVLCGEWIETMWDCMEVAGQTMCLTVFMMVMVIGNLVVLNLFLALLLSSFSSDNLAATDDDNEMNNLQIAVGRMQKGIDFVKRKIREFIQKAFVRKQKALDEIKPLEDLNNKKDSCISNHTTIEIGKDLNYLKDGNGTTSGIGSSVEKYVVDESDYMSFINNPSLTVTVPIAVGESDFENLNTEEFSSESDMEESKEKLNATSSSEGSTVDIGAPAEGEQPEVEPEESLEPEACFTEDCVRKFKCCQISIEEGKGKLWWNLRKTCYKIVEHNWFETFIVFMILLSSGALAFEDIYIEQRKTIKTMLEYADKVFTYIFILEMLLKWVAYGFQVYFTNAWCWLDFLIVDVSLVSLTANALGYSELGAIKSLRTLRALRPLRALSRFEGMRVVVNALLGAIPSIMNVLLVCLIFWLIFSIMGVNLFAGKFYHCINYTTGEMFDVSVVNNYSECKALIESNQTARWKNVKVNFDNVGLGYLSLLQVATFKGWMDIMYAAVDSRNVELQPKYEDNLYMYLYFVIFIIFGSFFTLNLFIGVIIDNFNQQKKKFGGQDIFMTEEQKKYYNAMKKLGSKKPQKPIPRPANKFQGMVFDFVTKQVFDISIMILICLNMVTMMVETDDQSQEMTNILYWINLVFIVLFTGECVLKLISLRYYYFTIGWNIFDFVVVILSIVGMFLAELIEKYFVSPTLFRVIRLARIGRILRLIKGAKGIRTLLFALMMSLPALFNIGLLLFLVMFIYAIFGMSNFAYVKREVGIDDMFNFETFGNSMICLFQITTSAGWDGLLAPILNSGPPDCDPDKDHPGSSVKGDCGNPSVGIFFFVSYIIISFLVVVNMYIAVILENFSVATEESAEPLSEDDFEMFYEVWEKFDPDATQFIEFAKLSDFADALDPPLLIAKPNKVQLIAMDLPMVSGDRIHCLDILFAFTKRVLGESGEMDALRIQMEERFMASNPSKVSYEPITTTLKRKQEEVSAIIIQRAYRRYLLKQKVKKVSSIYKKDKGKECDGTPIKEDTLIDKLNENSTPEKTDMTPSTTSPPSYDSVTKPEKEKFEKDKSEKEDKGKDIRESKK
T1 sequence (Q15858 whole entry): as the sequence (Q15858 whole entry) above

Compound: Cc1c(C(=O)O)c(O)cc2c1C(=O)c1c(O)c(C3O[C@H](CO)[C@@H](O)[C@H](O)[C@H]3O)c(O)c(O)c1C2=O (stereo in doubt) [Carmine]
octanol-water partition [1]: partitioned into the octanol phase
veratridine-induced fluorescence signal in presence of quencher (hNaV1.7): comparatively low signal

octanol-water partition [1]: partitioned into the octanol phase
Compound: COc1cc(S(=O)(=O)[O-])c(C)cc1N=Nc1c(O)ccc2cc(S(=O)(=O)[O-])ccc12.[Na+].[Na+] [Allura Red, Allura Red AC]

Compound: CC(=O)Nc1ccc(S(=O)(=O)[O-])c2cc(S(=O)(=O)[O-])c(N=Nc3ccc(N=Nc4ccc(S(=O)(=O)[O-])cc4)c4ccc(S(=O)(=O)[O-])cc34)c(O)c12.[Na+].[Na+].[Na+].[Na+] [Brilliant Black BN]
peak absorption (λ max) [2]: 575 nm
action on adenosine receptors (adenosine receptors): allosteric modulator

Compound: CC(C)C[C@H](NC(=O)c1cc2ccccc2s1)C(=O)N1CCN(C(=O)[C@H](CO)NS(=O)(=O)c2ccc(Cl)cc2Cl)CC1 [GSK1016790A]
EC50 (TRPV4; BD Calcium Assay Kit): 0.04 µM
EC50 (TRPV4; FLIPR Calcium 4 no-wash dye): 0.08 µM
EC50 (TRPV4; fluo-4 with Allura Red 1 mM): 0.064 µM
EC50 (TRPV4; fluo-4 with Amaranth 1 mM): 0.07 µM
EC50 (TRPV4; fluo-4 with Brilliant Black BN 1 mM): 0.072 µM
EC50 (TRPV4; fluo-4 with Ponceau 4R 1 mM): 0.074 µM
EC50 (TRPV4; fluo-4 with wash): 0.047 µM

Compound: O=S(=O)([O-])c1cc(S(=O)(=O)[O-])c2c(N=Nc3ccc(S(=O)(=O)[O-])c4ccccc34)c(O)ccc2c1.[Na+].[Na+].[Na+] [Ponceau 4R]
effect on activation or inactivation kinetics of NaV1.7 (human NaV1.7): no effect
shift in the I-V curve or effect on current size (human NaV1.7): did not cause a shift in the I-V curve or affect the current size
shift in voltage-dependence of activation (V1/2 activation Δ) (human NaV1.7; [3]): –0.96 mV
shift in voltage-dependence of steady-state fast inactivation (V1/2 inactivation Δ) (human NaV1.7; [3]): –1.46 mV

Compound: CCCCNc1ccc(C(=O)OCCN(C)C)cc1 [tetracaine]
IC50 (NaV1.1–1.8): 6 to 66 µM
IC50 (hNaV1.1; hNaV1.1, response to veratridine 60 μM, read-out: IC50 (reduction of fluorescence response)): 52 µM
IC50 (hNaV1.8; Tetracaine pIC50, hNaV1.8, 5 min pre-incubation, then deltamethrin 150 μM): 6.61 µM
IC50 (hNaV1.8; hNaV1.8, response to deltamethrin 150 μM, read-out: IC50 (reduction of fluorescence response)): 6 µM
IC50 (hNaV1.4): 13 µM

Compound: COc1ccc(C(=O)O[C@H]2CC[C@@]3(C)[C@@H]4CC[C@H]5[C@]6(O)C[C@H](O)[C@@]7(O)[C@@H](CN8C[C@@H](C)CC[C@H]8[C@@]7(C)O)[C@]6(O)C[C@@]53O[C@]24O)cc1OC [veratridine]
EC50 (hNaV1.2; EC50 (increase in fluorescence), hNaV1.2, ANG-2 + Ponceau 4R): 16 µM
EC50 (hNaV1.2; Veratridine pEC50, HEK293 hNaV1.2, ANG-2 + Ponceau 4R 1 mM, AUC 5 min): 16.6 µM
EC50 (NaV1.1–1.7): 10 to 29 µM
effect on NaV1.8 in fluorescence-based assays (NaV1.8): little effect
EC50 (hNaV1.1; EC50 (increase in fluorescence), hNaV1.1, ANG-2 + Ponceau 4R): 21 µM
EC50 (hNaV1.1; Veratridine pEC50, HEK293 hNaV1.1, ANG-2 + Ponceau 4R 1 mM, AUC 5 min): 21.9 µM
